Source: patent US20200206212A1 (Celgene Corporation, priority 2018, published 2020)

Key:
[1] = format: physicochemical
From the text: “Compound 1” or “API” in the Examples herein refers to polymorph Form C of 2-(4-chlorophenyl)-N-((2-(2,6-dioxopiperidin-3-yl)-1-oxoisoindolin-5-yl)methyl)-2,2-difluoroacetamide. […] Other forms of Compound 1, including Form A, Form B, Form D, Form F and amorphous form can be used in the formulations provided herein.

[2] = physchem; format: physicochemical; conditions: for solubility: organic solvent or mixture, thermodynamic from solid
Protocol: FA/AcOH mixtures ranging from 100% FA to 70%/30% FA/AcOH in decrements of 10% were used.
Solutions of FA/AcOH at ratios described in Table 39 were used. […] Samples were taken at each time point (4, 24, and 48 h) and assayed (36 total). Samples were spun down briefly (500 g, 4 min) to precipitate all solids and 25 μL of solution were taken for assay.

[3] = tested on: acute myeloid leukemia (AML) at relapse; conditions: administered alone; cited from earlier work

Row | Compound | Hygroscopicity [1] | Solid State Stability [1] | major degradation pathway [1] | Solution Stability ([1]; pH 5) | solubility across FA/AcOH mixtures [2] | solubility ([2]; 40 °C) [mg/mL] | solubility ([2]; 60 °C) [mg/mL] | response in treating acute myeloid leukemia (AML) at relapse [3]
1 | O=C1CCC(N2Cc3cc(CNC(=O)C(F)(F)c4ccc(Cl)cc4)ccc3C2=O)C(=O)N1 (centres unmarked) [Compound 1, 2-(4-chlorophenyl)-N-((2-(2,6-dioxopiperidin-3-yl)-1-oxoisoindolin-5-yl)methyl)-2,2-difluoroacetamide] | Not hygroscopic | DS is physically stable under all storage conditions. | Hydrolysis | not stable in solution at pH of 5.0 or above | maximized in 100% FA | > 250 | > 250 | 
2 | CT-011: anti-PD-1 antibody, a humanized antibody |  |  |  |  |  |  |  | failed to show response
